Measured values from US10703729B2, “Pyrazine derivative, and preparation method and medical use thereof” (GUANGZHOU MAGPIE PHARMACEUTICALS CO., LTD., priority 2015, dated 2020).

Tests used:
[1] = Wang Tingfang, Journal of Pharmaceutical Practice 2011; cited from earlier work
[2] = test system: SD rat myocardial infarction model; experiment: SD rat myocardial infarction model; format: in vivo; conditions: 20 mg/kg via tail vein after modeling, read at 24 hours; FIG. 19
Procedure: A male SD rat was anesthetized with 2.5% isoflurane and fixed. Tracheotomy was performed, and the rat was connected to a ventilator and was cut at the position 0.5 cm on the left side of the sternal along the 2nd intercostal space and the 4th intercostal space 4. The subcutaneous tissue and muscle were bluntly dissected, and the chest was opened at the 4th intercostal space with forceps to expose the chest. The pericardium was carefully opened. The anterior descending branch of the left coronary artery was ligated with non-invasive suture needle No. 8 at the position of 2 to 3 mm from the lower edge of the left atrial appendage. The elevation of the ST segment of lead II ECG after the ligation was taken as an indication of a successful model. Throughout the experiment process, the rat was placed and kept warm on a 37° C. thermostatic table, and after waking up, the rat was placed into the original cage to continue feeding. After successful modeling, the rat was injected via tail vein for 15 min to give 20 mg/kg of IND-023 with a solution of 5% ethanol+5% polyethylene glycol+90% normal saline. […]

H9c2 cells [3] = experiment: Protective effect on t-BHP-induced H9c2 cell injury (MTT); format: cell-based; conditions: pre-protected 1 hour, t-BHP 150 μM 12 hours, 490 nm, FIG. 18
Procedure: H9c2 cells were seeded in a 96-well plate in a density of 1×10^4 cells/well, and cultured in a DMEM complete medium for 24 hours. IND-023 was pre-protected for 1 hour, and then diluted t-BHP 150 μM with serum-free high glucose DMEM and induced for 12 hours. MTT (5 mg/mL) was added and cultured for 4 hours. Then, the medium was aspirated, and 100 μL, of DMSO was added to each well. The cells were homogenized by shaking in a shaking table and the absorbance was measured at a wavelength of 490 nm with a BioTek microplate reader to calculate the cell viability.

H9c2 cells [4] = experiment: Protective effect on IAA-induced H9c2 cell damage (MTT); format: cell-based; conditions: pre-treatment 1 hour, IAA 50 μM 4 hours, 490 nm, FIG. 16
Procedure: H9c2 cells were seeded in a 96-well plate and incubated for 24 hours at 37° C. in a 5% CO2 incubator. Then, 100 μL it of IND-023 in different concentrations was added and subjected to prepreparation for 1 hour. After induction with IAA (50 μM) for 4 hours, MTT was added, and the absorbance was measured at 490 nm with a microplate reader.

H9c2 cells [5] = experiment: Protective effect on A/R-induced H9c2 cell damage (MTT); format: cell-based; conditions: hypoxia 12 hours, reoxygenation 4 hours, 490 nm, FIG. 17
Procedure: H9c2 cells were seeded in a 96-well plate and incubated at 37° C. in a 5% CO2 incubator for 24 hours, and then hypoxia was indicated. IND-023 of the drug group was diluted with KRB buffer as an anoxic solution into desired concentrations. The model group, after added only KRB solution with 50 μL in each well, was placed into the hypoxic box to be incubated for 12 hours, whereas, the blank group, after the initial medium was replaced with serum-free high glucose DMEM, was placed into a normal incubator. After the end of hypoxia, the medium of the model group was changed to serum-free high glucose DMEM. The drug group was diluted with high-glucose DMEM to corresponding concentrations with 100 μL each well, and was placed in a normal incubator and cultured for 4 hours. After the end of reoxygenation, the existing medium was removed and MTT was added. After 4 hours, the OD value was measured at 490 nm to calculate cell viability.

| SMILES | bioavailability [1] | protective effect on SD rat myocardial infarction model [2] | protective effect on t-BHP-induced H9c2 cell injury (H9c2 cells [3]) | protective effect on IAA-induced H9c2 cell injury (H9c2 cells [4]) | protective effect on A/R-induced H9c2 cell injury (H9c2 cells [5]) |
| --- | --- | --- | --- | --- | --- |
| O=C(O)[C@H](O)Cc1ccc(O)c(O)c1 [Danshensu, Tanshinol] | 9.53-14.18% |  |  |  |  |
| Cc1nc(COC(=O)C(O)Cc2ccc(O)c(O)c2)c(C)nc1COC(=O)C(O)Cc1ccc(O)c(O)c1 (centres unmarked) [IND-023] |  | protective effect | significant protective effect | significant protective effect | significant protective effect |
